Measured values taken from article PMC4476799, “Englerin A Agonizes the TRPC4/C5 Cation Channels to Inhibit Tumor Cell Line Proliferation” (PLoS ONE, 2015).
Read-outs that look alike come from different tables or passages of the source.

Tested on: cancer cell lines from the cancer cell line encyclopedia (CCLE)
Assay: Cell line profiling (CLiP) proliferation experiment
Assay type: cell-based
Parameters: ACTIVITY_AREA: scale not given here; AMAX: unit not given here
Settings: for IC50: read-out: Crossing Point; for EC50: read-out: Inflection Point
Protocol: Compound profiling experiment and data analysis was performed as previously described. Data was imported and plotted using the Tibco Spotfire DXP application. Lines were categorized as sensitive, intermediate and refractory as follows: Amax<-40 & Inflection Point <2 ~ Sensitive, Amax>-20 & Inflection Point >10 ~ Refractory, all else were called Intermediate. Cancer Cell line HG-U133 Plus 2 data was processed and normalized as described. […] Five sets of refractory cell lines were generated from the pool of refractory cell lines trying to match the lineage composition of the set of sensitive cell lines. The limma package was used as previously described to perform the statistical comparison.

[1] = CAS-1, central_nervous_system, astrocytoma_Grade_IV
[2] = CCK-81, large_intestine, adenocarcinoma
[3] = CCRF-CEM, haematopoietic_and_lymphoid_tissue, acute_lymphoblastic_T_cell_leukaemia
[4] = CFPAC-1, pancreas, ductal_carcinoma
[5] = CI-1, haematopoietic_and_lymphoid_tissue, B_cell_lymphoma_unspecified
[6] = CMK, haematopoietic_and_lymphoid_tissue, acute_myeloid_leukaemia
[7] = CMK-11-5, haematopoietic_and_lymphoid_tissue, acute_myeloid_leukaemia
[8] = CML-T1, haematopoietic_and_lymphoid_tissue, blast_phase_chronic_myeloid_leukaemia
[9] = COLO 205, large_intestine, adenocarcinoma
[10] = COLO 668, lung, small_cell_carcinoma
[11] = COLO 775, haematopoietic_and_lymphoid_tissue, chronic_myeloid_leukaemia
[12] = COLO-320, large_intestine, adenocarcinoma
[13] = COLO-680N, oesophagus, squamous_cell_carcinoma
[14] = COR-L23, lung, large_cell_carcinoma
[15] = COR-L47, lung, small_cell_carcinoma
[16] = COR-L88, lung, small_cell_carcinoma
[17] = COR-L279, lung, small_cell_carcinoma
[18] = Calu-6, lung, undifferentiated_carcinoma
[19] = Capan-1, pancreas, ductal_carcinoma
[20] = DBTRG-05MG, central_nervous_system, astrocytoma_Grade_IV
[21] = DK-MG, central_nervous_system, astrocytoma_Grade_IV
[22] = DLD-1, large_intestine, adenocarcinoma
[23] = DMS 114, lung, small_cell_carcinoma
[24] = DMS 273, lung, small_cell_carcinoma
[25] = Daoy, central_nervous_system, NS
[26] = Detroit 562, upper_aerodigestive_tract, NS
[27] = EFM-192A, cell line EFM-192A, breast
[28] = HCC1500, cell line HCC1500, breast

CC(C)[C@@]12C[C@@H](O)[C@@](C)(O1)[C@@H]1CC[C@@H](C)[C@H]1[C@@H]2OC(=O)/C=C/c1ccccc1 [Englerin B]
effect on proliferation of cancer cell lines (524 cancer cell lines from the CCLE): no cancer cell lines have their growth potently inhibited
IC50 (A4/Fuk cells): 18.1 µM
EC50 (A4/Fuk cells): 18.1 µM
IC50 (ACC-MESO-1, ACC-MESO-1 cells): > 30 µM
IC50 (ACC-MESO-1, cell line ACC-MESO-1, pleura, NS): > 30 µM
IC50 (BDCM cells): 16.9 µM
EC50 (BDCM cells): 16.9 µM
EC50 (BHY cells): 9.33 µM
IC50 (BICR 6 cells): 23 µM
EC50 (BICR 6 cells): 23 µM
EC50 (BICR 22 cells): 15 µM
IC50 (CAL-78, bone, dedifferentiated): > 30 µM
IC50 (CAL-78 cells): > 30 µM
ACTIVITY_AREA (CAMA-1, breast, NS): 21.9
AMAX (CAMA-1, breast, NS): -43.81
RESPONSE (CAMA-1, breast, NS): INTERMEDIATE
ACTIVITY_AREA [1]: 8.27
AMAX [1]: -27.8
RESPONSE [1]: INTERMEDIATE
IC50 [1]: > 30 µM
IC50 (CAS-1 cells): > 30 µM
ACTIVITY_AREA [2]: 19.43
AMAX [2]: -61.47
RESPONSE [2]: INTERMEDIATE
IC50 [2]: 24.9 µM
EC50 [2]: 24.9 µM
IC50 (CCK-81 cells): 24.9 µM
EC50 (CCK-81 cells): 24.9 µM
ACTIVITY_AREA [3]: 12.38
AMAX [3]: -48.26
RESPONSE [3]: INTERMEDIATE
ACTIVITY_AREA [4]: 25.86
AMAX [4]: -50.08
RESPONSE [4]: INTERMEDIATE
ACTIVITY_AREA (CHL-1, skin, NS): 19.98
AMAX (CHL-1, skin, NS): -60.11
RESPONSE (CHL-1, skin, NS): INTERMEDIATE
ACTIVITY_AREA (CHP-212, autonomic_ganglia, NS): 33.44
AMAX (CHP-212, autonomic_ganglia, NS): -55.99
RESPONSE (CHP-212, autonomic_ganglia, NS): INTERMEDIATE
ACTIVITY_AREA [5]: 19.7
AMAX [5]: 16.67
RESPONSE [5]: REFRACTORY
IC50 [5]: > 30 µM
ACTIVITY_AREA [6]: 61.63
AMAX [6]: -8.06
RESPONSE [6]: REFRACTORY
IC50 [6]: > 30 µM
IC50 (CMK-11-5, CMK-11-5, haematopoietic_and_lymphoid_tissue, acute_myeloid_leukaemia): 24.1 µM
ACTIVITY_AREA [7]: 101.26
AMAX [7]: -51.95
RESPONSE [7]: INTERMEDIATE
IC50 (CML-T1, CML-T1, haematopoietic_and_lymphoid_tissue, blast_phase_chronic_myeloid_leukaemia): 17.9 µM
ACTIVITY_AREA [8]: 42.33
AMAX [8]: -73.13
RESPONSE [8]: INTERMEDIATE
ACTIVITY_AREA [9]: 33.02
AMAX [9]: -61.38
RESPONSE [9]: INTERMEDIATE
ACTIVITY_AREA [10]: 28.83
AMAX [10]: -55.03
RESPONSE [10]: INTERMEDIATE
IC50 (COLO 699, COLO-699, lung, adenocarcinoma): 3.62 µM
IC50 (COLO 704, COLO-704, ovary, NS): 6.82 µM
ACTIVITY_AREA (COLO 741, skin, NS): 12.88
AMAX (COLO 741, skin, NS): -37.55
RESPONSE (COLO 741, skin, NS): INTERMEDIATE
ACTIVITY_AREA [11]: 59.22
AMAX [11]: -93.44
RESPONSE [11]: INTERMEDIATE
IC50 [11]: 9.44 µM
EC50 [11]: 9.31 µM
ACTIVITY_AREA (COLO 792, skin, NS): 11.82
AMAX (COLO 792, skin, NS): -22.14
RESPONSE (COLO 792, skin, NS): INTERMEDIATE
IC50 (COLO 792, skin, NS): > 30 µM
EC50 (COLO 792, skin, NS): 16 µM
IC50 (COLO 792 cells): > 30 µM
EC50 (COLO 792 cells): 16 µM
ACTIVITY_AREA (COLO 829, skin, NS): 31.7
AMAX (COLO 829, skin, NS): -7.17
RESPONSE (COLO 829, skin, NS): REFRACTORY
ACTIVITY_AREA [12]: 102.29
AMAX [12]: -70.01
RESPONSE [12]: INTERMEDIATE
ACTIVITY_AREA [13]: 26.11
AMAX [13]: -34.59
RESPONSE [13]: INTERMEDIATE
ACTIVITY_AREA (COLO-699, lung, adenocarcinoma): 153.56
AMAX (COLO-699, lung, adenocarcinoma): -71.88
RESPONSE (COLO-699, lung, adenocarcinoma): INTERMEDIATE
ACTIVITY_AREA (COLO-704, ovary, NS): 138.81
AMAX (COLO-704, ovary, NS): -63.22
RESPONSE (COLO-704, ovary, NS): INTERMEDIATE
ACTIVITY_AREA (COLO-800, skin, NS): 66.95
AMAX (COLO-800, skin, NS): -43.63
RESPONSE (COLO-800, skin, NS): INTERMEDIATE
ACTIVITY_AREA [14]: 32.4
AMAX [14]: -39.64
RESPONSE [14]: INTERMEDIATE
ACTIVITY_AREA [15]: 92.1
AMAX [15]: -15.76
RESPONSE [15]: REFRACTORY
ACTIVITY_AREA [16]: 20.83
AMAX [16]: -31.56
RESPONSE [16]: INTERMEDIATE
ACTIVITY_AREA [17]: 130.29
AMAX [17]: -86.84
RESPONSE [17]: INTERMEDIATE
IC50 (COV318, COV318, ovary, NS): 25.6 µM
EC50 (COV318, COV318, ovary, NS): 25.6 µM
ACTIVITY_AREA (COV318, ovary, NS): 39.59
AMAX (COV318, ovary, NS): -54.13
RESPONSE (COV318, ovary, NS): INTERMEDIATE
IC50 (COV504, COV504, ovary, NS): > 30 µM
IC50 (COV504, cell line COV504 (ovary, NS)): > 30 µM
ACTIVITY_AREA (COV504, ovary, NS): 33.53
AMAX (COV504, ovary, NS): -45.79
RESPONSE (COV504, ovary, NS): INTERMEDIATE
ACTIVITY_AREA (COV644, ovary, NS): 35.24
AMAX (COV644, ovary, NS): -28.86
RESPONSE (COV644, ovary, NS): INTERMEDIATE
IC50 (COV644, ovary, NS): > 30 µM
EC50 (COV644, ovary, NS): 3.05 µM
IC50 (COV644 cells): > 30 µM
EC50 (COV644 cells): 3.05 µM
ACTIVITY_AREA (Calu-3, lung, adenocarcinoma): 19.78
AMAX (Calu-3, lung, adenocarcinoma): 4.65
RESPONSE (Calu-3, lung, adenocarcinoma): REFRACTORY
ACTIVITY_AREA [18]: 28.42
AMAX [18]: -47.13
RESPONSE [18]: INTERMEDIATE
ACTIVITY_AREA (Caov-3, ovary, adenocarcinoma): 128.76
AMAX (Caov-3, ovary, adenocarcinoma): -55.06
RESPONSE (Caov-3, ovary, adenocarcinoma): INTERMEDIATE
ACTIVITY_AREA [19]: 29.63
AMAX [19]: -25.75
RESPONSE [19]: INTERMEDIATE
IC50 (Ci-1, CI-1 cells): > 30 µM
IC50 (DAN-G cells): 29.3 µM
EC50 (DAN-G cells): 29.3 µM
ACTIVITY_AREA (DAN-G, pancreas, NS): 26.93
AMAX (DAN-G, pancreas, NS): -50.77
RESPONSE (DAN-G, pancreas, NS): INTERMEDIATE
IC50 (DAN-G, pancreas, NS): 29.3 µM
EC50 (DAN-G, pancreas, NS): 29.3 µM
ACTIVITY_AREA [20]: 21.88
AMAX [20]: -30.64
RESPONSE [20]: INTERMEDIATE
ACTIVITY_AREA [21]: 33.27
AMAX [21]: -67.8
RESPONSE [21]: INTERMEDIATE
IC50 [21]: 16.1 µM
EC50 [21]: 12.5 µM
ACTIVITY_AREA [22]: 71.46
AMAX [22]: -59.67
RESPONSE [22]: INTERMEDIATE
ACTIVITY_AREA [23]: 21.61
AMAX [23]: -57.16
RESPONSE [23]: INTERMEDIATE
ACTIVITY_AREA [24]: 29.68
AMAX [24]: -73.92
RESPONSE [24]: INTERMEDIATE
ACTIVITY_AREA [25]: 43
AMAX [25]: -39.21
RESPONSE [25]: INTERMEDIATE
ACTIVITY_AREA [26]: 35.45
AMAX [26]: -46.18
RESPONSE [26]: INTERMEDIATE
IC50 [27]: 22.9 µM
EC50 [27]: 22.9 µM
EC50 (EFM-192A, cell line EFM-192A): 22.9 µM
IC50 (GP2d, cell line GP2d, large_intestine): > 30 µM
IC50 (GP2d, cell line GP2d): > 30 µM
IC50 (HCC15, cell line HCC-15, lung): 15.5 µM
IC50 (HCC366, cell line HCC-366, lung): > 30 µM
IC50 (HCC366, cell line HCC-366): > 30 µM
IC50 (HCC1171, cell line HCC-1171, lung): 26.9 µM
IC50 [28]: > 30 µM
EC50 [28]: 8.24 µM
IC50 (HCC1500, cell line HCC1500): > 30 µM
IC50 (HEC-6, cell line HEC-6, endometrium): > 30 µM
IC50 (HEC-6, cell line HEC-6): > 30 µM
IC50 (HEC-50B, cell line HEC-50B, endometrium): > 30 µM
